Read-outs that look alike come from different tables or passages of the source. Ends that are not written are not given here.
Columns and labels:
P. aeruginosa ATCC 15692 = format: cell-based, Pseudomonas aeruginosa
Excerpt: The method for peptide synthesis has been described in detail previously. […] Bacillus subtilis KCTC 1998 (LB media), Salmonella typhimurium KCTC 1926 (NB media), and Proteus vulgaris KCTC 2433 (NB media) were obtained from the Korean Collection for Type Cultures (Jeollabuk-do, Korea). E. coli CCARM 1238 was received from the Culture Collection of Antibiotic Resistant Microbes at Seoul Women’s University, Korea. Drug-resistant P. aeruginosa 3543, 3904, 3547, and 4007 and S. aureus 3126, 0027, 5157, 1635, 4761, 5159, 3359, 2122, 1630, 1870, 3511, 5156, and 3518 were resistant strains isolated from patients with otitis media in a Chonnam National University’s hospital.
The antibacterial activities of AMPs (melittin, clavaspirin, and its analogs) and conventional antibiotic drugs (erythromycin, gentamicin, ampicillin, and piperacidin) were determined using microdilution assays. […] Thereafter, 2× serial dilutions of each peptide (0.25–128 μM) or antibiotic (0.25–256 μM) were added to sterile 96-well plates, and aliquots of cell suspension (5 × 10^5 colony forming units (cfu)/mL) were seeded into each well. The samples were then incubated at 37° C for 24 h. At the end of the incubation, the minimum inhibitory concentrations (MICs) of the peptides were determined using a VERSA Max microplate reader (Molecular Devices Co., Sunnyvale, CA, USA) at a wavelength of 600 nm. […] MIC values were calculated as the mean of 3 independent experiments conducted in triplicate.

[1] = tested on: Listeria monocytogenes ATCC 3710; format: cell-based
Excerpt: (§1) The method for peptide synthesis has been described in detail previously. E. coli ATCC 25922 (LB media), P. aeruginosa ATCC 15692 (NB+0.5% NaCl media), Listeria monocytogenes ATCC 3710 (LB media), Staphylococcus epidermidis ATCC 12228 (LB media), and S. aureus ATCC 29213 (TSB media) were obtained from the American Type Culture Collection (Manassas, VA, USA). Bacillus subtilis KCTC 1998 (LB media), Salmonella typhimurium KCTC 1926 (NB media), and Proteus vulgaris KCTC 2433 (NB media) were obtained from the Korean Collection for Type Cultures (Jeollabuk-do, Korea). E. coli CCARM 1238 was received from the Culture Collection of Antibiotic Resistant Microbes at Seoul Women’s University, Korea. Drug-resistant P. aeruginosa 3543, 3904, 3547, and 4007 and S. aureus 3126, 0027, 5157, 1635, 4761, 5159, 3359, 2122, 1630, 1870, 3511, 5156, and 3518 were resistant strains isolated from patients with otitis media in a Chonnam National University’s hospital.
(§2) The antibacterial activities of AMPs (melittin, clavaspirin, and its analogs) and conventional antibiotic drugs (erythromycin, gentamicin, ampicillin, and piperacidin) were determined using microdilution assays. Bacterial cells were cultured at 37° C in appropriate culture media at pH 5.5 or pH 7.4 until collection during the mid-log phase and suspended in 10 mM sodium phosphate buffer (pH 5.5 or pH 7.4) supplemented with 10% culture medium. Thereafter, 2× serial dilutions of each peptide (0.25–128 μM) or antibiotic (0.25–256 μM) were added to sterile 96-well plates, and aliquots of cell suspension (5 × 10^5 colony forming units (cfu)/mL) were seeded into each well. The samples were then incubated at 37° C for 24 h. At the end of the incubation, the minimum inhibitory concentrations (MICs) of the peptides were determined using a VERSA Max microplate reader (Molecular Devices Co., Sunnyvale, CA, USA) at a wavelength of 600 nm. […] MIC values were calculated as the mean of 3 independent experiments conducted in triplicate.

[2] = tested on: Bacillus subtilis KCTC 1998; format: cell-based
Excerpt: as §1, §2

[3] = tested on: Staphylococcus epidermidis ATCC 12228; format: cell-based
Excerpt: as §1, §2

[4] = tested on: HaCaT (human keratinocyte) cells; test: Cytotoxicity, MTT assay; format: cell-based; conditions: DMEM containing 10% FBS and 1% PS, 24 h, 37° C; for EC50: read-out: EC50 (effective concentration in HaCaT cells)
Method: To examine the cytotoxic effects of the peptides, HaCaT (human keratinocyte) cells were cultured in Dulbecco’s modified Eagle’s medium (DMEM) supplemented with antibiotics (100 U/ml penicillin and 100 μg/ml streptomycin) and 10% fetal calf serum at 37° C in a humidified chamber under a 5% CO2 atmosphere. Growth inhibition was evaluated using 3-(4, 5-dimethylthizol-2-yl)-2, 5-diphenyltetrazolium bromide (MTT) assays to measure cell viability. After cells were seeded into a 96-well plate at a density of 2 × 10^4/well and incubated for 24 h, twofold serial dilutions of each peptide in DMEM were added to the wells, and the cells were incubated for an additional 24 h at 37° C. Thereafter, 10 μl of MTT (5 mg/ml) was added to each well, and the plate was incubated for 4 h. The supernatants were then removed, and 50 μl of DMSO was added to each well to dissolve any remaining precipitate. Finally, the absorbance at 570 nm was measured using a microtiter reader.

[5] = tested on: human red blood cells (hRBCs); test: Hemolysis; format: cell-based; conditions: PBS buffer containing 8% hRBCs, 1 h, 37° C, absorbance 414 nm, triplicate
Method: Fresh human red blood cells (hRBCs) from healthy donors were centrifuged at 800 × g and washed with phosphate-buffered saline (PBS) until the supernatant was clear. Twofold serial dilutions of the peptides in PBS were added to a 96-well plate, after which the hRBCs were added to obtain a final concentration of 8% (vol/vol). The samples were then incubated with mild agitation for 1 h at 37° C. The samples were then centrifuged at 800 × g for 10 min, and the absorbance of the supernatant was measured at 414 nm. All the measurements were performed in triplicate, and the percentages of hemolysis were calculated using equation 1: % hemolysis=[(A414 in peptide solution−A414 in PBS)/(A414 in […]−A414 in PBS)]×100 (1)
Where 100% hemolysis was defined as the absorbance measured from hRBCs exposed to 1% Triton X-100 and zero hemolysis was characterized using hRBCs alone in PBS [40].

[6] = pH 5.5 (I), 10 mM sodium phosphate buffer, 10% LB, 37° C, 24 h, mean of 3 experiments
[7] = pH 7.4 (II), 10 mM sodium phosphate buffer, 10% LB, 37° C, 24 h, mean of 3 experiments

| Substance | MIC, P. aeruginosa (P. aeruginosa ATCC 15692; [6]) [µM] | MIC, P. aeruginosa (P. aeruginosa ATCC 15692; [7]) [µM] | MIC, L. monocytogenes [1, 6] [µM] | MIC, L. monocytogenes [1, 7] [µM] | MIC, B. subtilis [2, 6] [µM] | MIC, B. subtilis [2, 7] [µM] | MIC, S. epidermidis [3, 6] [µM] | MIC, S. epidermidis [3, 7] [µM] | EC10 (effective concentration in HaCaT cells) [4] | EC50 [4] [µM] | HC10 (hemolytic activity) [5] | HC50 (hemolytic activity) [5] | MIC, P. aeruginosa (P. aeruginosa ATCC 15692; ATCC 15692, 24 h, pH 5.5) [µM] | MIC, P. aeruginosa (P. aeruginosa ATCC 15692; ATCC 15692, 24 h, pH 7.4) [µM] | MIC, L. monocytogenes ([1]; ATCC 3710, 24 h, pH 5.5) [µM] | MIC, L. monocytogenes ([1]; ATCC 3710, 24 h, pH 7.4) [µM] | MIC, B. subtilis ([2]; KCTC 1998, 24 h, pH 5.5) [µM] | MIC, B. subtilis ([2]; KCTC 1998, 24 h, pH 7.4) [µM] | MIC, S. epidermidis ([3]; ATCC 12228, 24 h, pH 5.5) [µM] | MIC, S. epidermidis ([3]; ATCC 12228, 24 h, pH 7.4) [µM] |
| --- | --- | --- | --- | --- | --- | --- | --- | --- | --- | --- | --- | --- | --- | --- | --- | --- | --- | --- | --- | --- |
| FLRFIGSVKHGKGHLVHHIGVAL-NH2 [CSP-4] | 32 | 32 | 4 | 4 | 4 | 4 | 4 | 8 | > 400 | > 400 | > 400 | > 400 | – | – | – | – | – | – | – | – |
| FKRFIGSVKHGIGHLVHHIGVAL-NH2 [CSP-3] | – | – | – | – | – | – | – | – | 84 | 188 | > 400 | > 400 | 32 | 32 | 16 | 8 | 8 | 16 | 4 | 8 |

Source: article PMC5884652, “New antimicrobial peptide kills drug-resistant pathogens without detectable resistance” (Oncotarget, 2018)
